Data on five compounds can be found in patent publication US20240398781A1, “SPIROCYCLIC CYCLIC MODULATORS OF CHOLESTEROL BIOSYNTHESIS AND THEIR USE FOR PROMOTING REMYELINATION” (GENENTECH, INC., priority 2021, published 2024).

In assay [1] the test system is EBP (zymostenol accumulation in EpiSC-derived OPCs). The assay can be described thus: GC/MS-based sterol profiling, zymostenol accumulation in OPCs. The format is cell-based, mouse. Conditions: Mus musculus, 24 h, EpiSC-derived OPCs, 24 hr treatment, 8 doses from 0.15 nM to 333 nM; read-out: Zymostenol GCMS EC50. In short, it runs like this: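 EpiSC-derived OPCs (100,000/well) were treated 24 h in N2B27 without growth factors. Sterols were TMS-derivatized and analysed by GC/MS full-scan EI, quantified against cholesterol-d7. Zymostenol was normalized to the level after 24 h with 100 nM positive control reference.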

The next assay concerns the target human EBP (Homo sapiens (Human), UniProt Q15125). In words: Competition binding assay (SPA, [3H]-Ifenprodil) to determine compound affinity to EBP. Conditions: [3H]-Ifenprodil 10 nM, HEK293 membrane overexpressing human EBP, Ki=IC50/(1+[L]/Kd); read-out: hEBP SPA Ki. In short, it runs like this: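 Membranes from HEK293 cells overexpressing human EBP, on SPA beads (0.3 mg beads, 5 µg membrane/well) in Tris/MgCl2/EDTA buffer pH 7.5 with 0.01% BSA and 0.1% DMSO, competed against [3H]-ifenprodil for 3 h to equilibrium. Compounds were tested at 1 µM single dose or 0.06 nM–5 µM; IC50 came from nonlinear fit, and Ki=IC50/(1+[L]/Kd).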

Sequence of human EBP (Q15125 whole entry): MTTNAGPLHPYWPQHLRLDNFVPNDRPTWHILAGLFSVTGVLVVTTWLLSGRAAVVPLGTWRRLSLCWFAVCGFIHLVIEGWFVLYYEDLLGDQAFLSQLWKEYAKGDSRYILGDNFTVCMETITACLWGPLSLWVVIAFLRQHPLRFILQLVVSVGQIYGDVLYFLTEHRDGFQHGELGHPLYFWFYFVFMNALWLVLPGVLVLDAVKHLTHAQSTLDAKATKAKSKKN

Take `CC(C)n1nc(-c2cncc(OC(F)F)c2)cc1[C@H]1CC[C@@H](N2CCC3(C2)CS(=O)(=O)C3)CC1` [Compound 33B, (Cis)-6-(4-(3-(5-(Difluoromethoxy)pyridin-3-yl)-1-isopropyl-1H-pyrazol-5-yl)cyclohexyl)-2-thia-6-azaspiro[3.4]octane 2,2-dioxide]: the EC50 (commonly the concentration giving half of the maximal effect) in assay [1] came to 9.8 nM. Besides, at human EBP, the inhibition constant (Ki) (usually the equilibrium dissociation constant of an inhibitor or competing ligand from its target) came to 33 nM.

Consider `CC(C)n1nc(N2CC(F)(F)C2)cc1[C@H]1CC[C@H](N2CCC3(C2)CS(=O)(=O)C3)CC1` [Compound 35, 6-((1r,4r)-4-(3-(3,3-Difluoroazetidin-1-yl)-1-isopropyl-1H-pyrazol-5-yl)cyclohexyl)-2-thia-6-azaspiro[3.4]octane 2,2-dioxide], for which the EC50 in assay [1] amounted to 45 nM. For the same compound, the Ki at human EBP turned out to be 180 nM.

Consider `O=S1(=O)CC2(CCN([C@H]3CC[C@@H](c4cc(C(F)(F)F)nn4C4CC4)CC3)CC2)C1` [Compound 40A, 7-((1r,4r)-4-(1-cyclopropyl-3-(trifluoromethyl)-1H-pyrazol-5-yl)cyclohexyl)-2-thia-7-azaspiro[3.5]nonane 2,2-dioxide], for which the concentration giving a half-maximal response (EC50) in assay [1] is 4 nM. Also, on human EBP, the Ki worked out at 32 nM.

On to `O=S1(=O)CC2(CCN([C@H]3CC[C@H](c4cc(C(F)(F)F)nn4C4CC4)CC3)CC2)C1` [Compound 40B, 7-((1s,4s)-4-(1-cyclopropyl-3-(trifluoromethyl)-1H-pyrazol-5-yl)cyclohexyl)-2-thia-7-azaspiro[3.5]nonane 2,2-dioxide], for which, in assay [1], the EC50 was 17 nM. In addition, the Ki on human EBP was 47 nM.

With `Cc1cc(C(F)(F)F)cnc1[C@H]1CC[C@H](N2CCC3(C2)CS(=O)(=O)C3)CC1` [Compound 47B, 6-((1r,4r)-4-(3-methyl-5-(trifluoromethyl)pyridin-2-yl)cyclohexyl)-2-thia-6-azaspiro[3.4]octane 2,2-dioxide], in assay [1], the 50% effective concentration (EC50) was 4.1 nM. Moreover, the Ki on human EBP was found to be 16 nM.
